Target: LRRK2 (Homo sapiens, UniProt Q5S007)
Test: LRRK2-LRRK2 G2019S-Assay (LanthaScreen Eu Kinase Binding Assay)
Details: 5 nM LRRK2, 10 nM tracer 236, 2 nM EU-Anti-GST antibody, 1 h at RT; read-out: LRRK2 Activities: IC50
Description: In the assay LanthaScreen™ Eu Kinase Binding Assay by Invitrogen Corporation (Carlsbad) the effect of invention of a compound on the phosphorylation is determined by measurement of fluorescence intensity emission ratio based on the binding and displacement of a proprietary, Alexa Fluor® 647-labeled, ATP-competitive kinase inhibitor scaffold (kinase tracer) to the kinase of interest. Binding of the tracer to the kinase is detected using a europium-labeled anti-tag antibody, which binds to the kinase of interest. Simultaneous binding of both the tracer and antibody to the kinase results in a high degree of FRET (fluorescence resonance energy transfer) from the europium (Eu) donor fluorophore to the Alexa Fluor® 647 acceptor fluorophore on the kinase tracer. Binding of an inhibitor to the kinase competes for binding with the tracer, resulting in a loss of FRET. The fluorescence intensity ratio is directly proportional to the amount of peptide phosphorylation.
To the wells of an 384 well small volume plate (Greiner, Frickenhausen) are added (i) the compound under test in 5% DMSO/distilled water (5 μl), (ii) 5 μl of the kinase antibody mixture resulting in a final concentration 5 nM LRRK2 or their mutants, 2 nM EU-Anti-GST antibody in 1× kinase buffer A. The reaction was started with addition of (iii) 5 μl resulting in a final concentration of 10 nM tracer 236. The assay plate was incubated at RT for 1 h and fluorescence intensity readings were collected using a TECAN M1000 at two wavelengths of λex 340/λem 615 nm and λex 340/λem 665 nm with a delay time of 100 μs and an integration time of 200 μs after 60 minutes. The emission ratio was calculated by division of the acceptor/tracer emission ([…]) by the antibody/donor emission ([…]). The inhibitor concentration was plotted versus the emission ratio to determine the IC50 using XLFit 5.0 (IDBS, Guildford) to fit to a sigmoidal dose response curve with a variable slope.

LRRK2, sequence (Q5S007 970-2527 limits assumed): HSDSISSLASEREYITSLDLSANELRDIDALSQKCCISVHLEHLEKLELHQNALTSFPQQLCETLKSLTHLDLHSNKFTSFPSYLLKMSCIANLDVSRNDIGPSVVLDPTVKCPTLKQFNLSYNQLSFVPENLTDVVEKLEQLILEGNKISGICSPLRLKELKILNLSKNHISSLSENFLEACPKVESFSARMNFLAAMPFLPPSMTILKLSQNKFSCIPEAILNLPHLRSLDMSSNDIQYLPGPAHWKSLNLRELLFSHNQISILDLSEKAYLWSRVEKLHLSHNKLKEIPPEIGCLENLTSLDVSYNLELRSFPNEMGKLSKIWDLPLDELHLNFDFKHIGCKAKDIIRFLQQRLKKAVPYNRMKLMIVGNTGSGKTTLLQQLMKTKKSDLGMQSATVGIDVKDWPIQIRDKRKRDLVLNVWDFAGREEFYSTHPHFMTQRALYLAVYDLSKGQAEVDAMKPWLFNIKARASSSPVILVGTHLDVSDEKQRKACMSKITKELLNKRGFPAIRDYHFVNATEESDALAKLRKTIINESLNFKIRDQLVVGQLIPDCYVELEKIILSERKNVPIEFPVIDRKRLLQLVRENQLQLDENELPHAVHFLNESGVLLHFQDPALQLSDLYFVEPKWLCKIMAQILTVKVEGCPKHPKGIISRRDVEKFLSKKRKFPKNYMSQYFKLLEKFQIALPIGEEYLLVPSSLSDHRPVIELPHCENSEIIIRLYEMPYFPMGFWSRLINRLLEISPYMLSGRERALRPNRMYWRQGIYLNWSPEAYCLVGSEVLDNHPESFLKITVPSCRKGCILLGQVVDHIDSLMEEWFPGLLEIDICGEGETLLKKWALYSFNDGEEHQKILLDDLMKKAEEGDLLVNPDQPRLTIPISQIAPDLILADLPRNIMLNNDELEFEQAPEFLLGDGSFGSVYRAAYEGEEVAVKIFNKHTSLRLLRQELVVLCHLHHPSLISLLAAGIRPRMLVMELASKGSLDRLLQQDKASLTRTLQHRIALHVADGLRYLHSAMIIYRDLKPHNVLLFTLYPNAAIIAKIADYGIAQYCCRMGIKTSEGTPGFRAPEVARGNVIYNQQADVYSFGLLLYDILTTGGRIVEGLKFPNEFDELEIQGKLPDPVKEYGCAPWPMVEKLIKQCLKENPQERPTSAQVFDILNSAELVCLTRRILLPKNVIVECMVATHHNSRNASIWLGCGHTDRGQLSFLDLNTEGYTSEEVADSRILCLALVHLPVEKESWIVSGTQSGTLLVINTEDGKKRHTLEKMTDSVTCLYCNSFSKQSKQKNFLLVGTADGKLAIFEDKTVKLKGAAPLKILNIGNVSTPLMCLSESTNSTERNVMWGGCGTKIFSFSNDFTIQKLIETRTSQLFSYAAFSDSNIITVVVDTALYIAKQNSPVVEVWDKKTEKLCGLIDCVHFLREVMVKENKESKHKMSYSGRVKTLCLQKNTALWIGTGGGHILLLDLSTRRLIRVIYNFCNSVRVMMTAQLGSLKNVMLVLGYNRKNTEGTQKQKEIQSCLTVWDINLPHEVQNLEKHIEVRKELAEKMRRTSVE

SMILES	IC50 [nM]
COCCn1ncc(Nc2nc3ccc(S(C)(=O)=O)cc3c3cn[nH]c23)c1Cl [Example 242, N-(5-chloro-1-(2-methoxyethyl)-1H-pyrazol-4-yl)-8-(methylsulfonyl)-3H-pyrazolo[3,4-c]quinolin-4-amine]	10 to 100
COc1ccc2nc(Nc3ccc4c(c3)S(=O)(=O)CC4)c3n[nH]cc3c2c1 [Example 12, 6-((8-methoxy-2H-pyrazolo[3,4-c]quinolin-4-yl)amino)-2,3-dihydrobenzo[b]thiophene 1,1-dioxide]	100 to 1000
COCCn1ncc(Nc2nc3cccc(OC)c3c3cn[nH]c23)c1Br [Example 275, N-(5-bromo-1-(2-methoxyethyl)-1H-pyrazol-4-yl)-9-methoxy-3H-pyrazolo[3,4-c]quinolin-4-amine]	10 to 100
COc1ccc2nc(Nc3ccc(C(=O)N4CCOCC4)c([N+](=O)[O-])c3)c3n[nH]cc3c2c1 [Example 35, (4-((8-methoxy-2H-pyrazolo[3,4-c]quinolin-4-yl)amino)-2-nitrophenyl)(morpholino)methanone]	100 to 1000
Cc1c(Nc2nc3ccc(S(C)(=O)=O)cc3c3c[nH]nc23)cnn1CC(C)(C)O [Example 326, 2-methyl-1-(5-methyl-4-((8-(methylsulfonyl)-2H-pyrazolo[3,4-c]quinolin-4-yl)amino)-1H-pyrazol-1-yl)propan-2-ol]	100 to 1000
COc1cccc2nc(Nc3c(C)nn(C(C)C)c3C)c3[nH]ncc3c12 [Example 234, N-(1-isopropyl-3,5-dimethyl-1H-pyrazol-4-yl)-9-methoxy-3H-pyrazolo[3,4-c]quinolin-4-amine]	100 to 1000
Fc1cccc2nc(Nc3ccc(N4CCOCC4)cc3)c3[nH]ncc3c12 [Example 9, 9-fluoro-N-(4-morpholinophenyl)-3H-pyrazolo[3,4-c]quinolin-4-amine]	10 to 100
COc1ccc2nc(Nc3ccc(N(C)C)nc3)c3n[nH]cc3c2c1 [Example 87, N5-(8-methoxy-2H-pyrazolo[3,4-c]quinolin-4-yl)-N2,N2-dimethylpyridine-2,5-diamine]	100 to 1000
Cn1cccc(Nc2nc3ccc(S(C)(=O)=O)cc3c3cn[nH]c23)c1=O [Example 202, 1-methyl-3-((8-(methylsulfonyl)-3H-pyrazolo[3,4-c]quinolin-4-yl)amino)pyridin-2(1H)-one]	100 to 1000
CSc1ccc2nc(Nc3cccc(S(C)(=O)=O)c3)c3[nH]ncc3c2c1 [Example 44, N-(3-(methylsulfonyl)phenyl)-8-(methylthio)-3H-pyrazolo[3,4-c]quinolin-4-amine]	10 to 100
COCCn1ncc(Nc2nc3ccc(S(C)(=O)=O)cc3c3cn[nH]c23)c1C [Example 210, N-(1-(2-methoxyethyl)-5-methyl-1H-pyrazol-4-yl)-8-(methylsulfonyl)-3H-pyrazolo[3,4-c]quinolin-4-amine]	10 to 100
COc1cccc2nc(Nc3ccc(C(=O)N4CCOCC4)cc3)c3[nH]ncc3c12 [Example 14, (4-((9-methoxy-3H-pyrazolo[3,4-c]quinolin-4-yl)amino)phenyl)(morpholino)methanone]	10 to 100
CC(C)(C)N1CCN(c2ccc(Nc3nc4cccc(S(C)(=O)=O)c4c4cn[nH]c34)cc2)CC1 [Example 95, N-(4-(4-(tert-butyl)piperazin-1-yl)phenyl)-9-(methylsulfonyl)-3H-pyrazolo[3,4-c]quinolin-4-amine]	100 to 1000
COc1ccc(Nc2nc3ccc(SC)cc3c3cn[nH]c23)cc1OC [Example 45, N-(3,4-dimethoxyphenyl)-8-(methylthio)-3H-pyrazolo[3,4-c]quinolin-4-amine]	100 to 1000
COc1cc(C(=O)N2CCOCC2)ccc1Nc1nc2cccc(OC)c2c2cn[nH]c12 [Example 200, (3-methoxy-4-((9-methoxy-3H-pyrazolo[3,4-c]quinolin-4-yl)amino)phenyl)(morpholino)methanone]	10 to 100
CN1CCC(n2cc(Nc3nc4ccc(S(C)(=O)=O)cc4c4cn[nH]c34)cn2)CC1 [Example 154, N-(1-(1-methylpiperidin-4-yl)-1H-pyrazol-4-yl)-8-(methylsulfonyl)-3H-pyrazolo[3,4-c]quinolin-4-amine]	< 10
CS(=O)(=O)c1ccc2nc(Nc3ccc4c(c3)N(C(=O)C3CC3)CCC4)c3n[nH]cc3c2c1 [Example 350, cyclopropyl(7-((8-(methylsulfonyl)-2H-pyrazolo[3,4-c]quinolin-4-yl)amino)-3,4-dihydroquinolin-1(2H)-yl)methanone]	100 to 1000

The remaining lines, values ahead:

IC50 [nM]	SMILES
100 to 1000	CS(=O)(=O)c1cccc(Nc2nc3cccc(S(C)(=O)=O)c3c3cn[nH]c23)c1 [Example 107, 9-(methylsulfonyl)-N-(3-(methylsulfonyl)phenyl)-3H-pyrazolo[3,4-c]quinolin-4-amine]
< 10	COc1cccc2nc(Nc3cnn(C4CCN(C(C)=O)CC4)c3)c3[nH]ncc3c12 [Example 157, 1-(4-(4-((9-methoxy-3H-pyrazolo[3,4-c]quinolin-4-yl)amino)-1H-pyrazol-1-yl)piperidin-1-yl)ethan-1-one]
< 10	Cc1nn(CCF)cc1Nc1nc2ccc(S(C)(=O)=O)cc2c2cn[nH]c12 [Example 269, N-(1-(2-fluoroethyl)-3-methyl-1H-pyrazol-4-yl)-8-(methylsulfonyl)-3H-pyrazolo[3,4-c]quinolin-4-amine]
100 to 1000	COc1cccc2nc(Nc3ccc(-c4ncco4)cc3)c3[nH]ncc3c12 [Example 58, 9-methoxy-N-(4-(oxazol-2-yl)phenyl)-3H-pyrazolo[3,4-c]quinolin-4-amine]
100 to 1000	O=C(c1ccc(Nc2nc3cccc(F)c3c3cn[nH]c23)cc1)N1CCOCC1 [Example 29, (4-((9-fluoro-3H-pyrazolo[3,4-c]quinolin-4-yl)amino)phenyl)(morpholino)methanone]
< 10	COc1ccc2nc(Nc3ccc(-c4cnco4)cc3)c3n[nH]cc3c2c1 [Example 37, 8-methoxy-N-(4-(oxazol-5-yl)phenyl)-2H-pyrazolo[3,4-c]quinolin-4-amine]
100 to 1000	COc1ccc2nc(Nc3ccc(N4CCOCC4)c(S(C)(=O)=O)c3)c3n[nH]cc3c2c1 [Example 90, 8-methoxy-N-(3-(methylsulfonyl)-4-morpholinophenyl)-2H-pyrazolo[3,4-c]quinolin-4-amine]
10 to 100	COc1cccc2nc(Nc3cnn(C(C)C)c3C(N)=O)c3[nH]ncc3c12 [Example 266, 1-isopropyl-4-((9-methoxy-3H-pyrazolo[3,4-c]quinolin-4-yl)amino)-1H-pyrazole-5-carboxamide]
100 to 1000	Fc1cc(Nc2nc3cccc(F)c3c3cn[nH]c23)ccc1N1CCOCC1 [Example 2, 9-fluoro-N-(3-fluoro-4-morpholinophenyl)-3H-pyrazolo[3,4-c]quinolin-4-amine]
10 to 100	COc1cccc2nc(Nc3ccc(CN4CCOCC4)cc3)c3[nH]ncc3c12 [Example 15, 9-methoxy-N-(4-(morpholinomethyl)phenyl)-3H-pyrazolo[3,4-c]quinolin-4-amine]
10 to 100	COc1cccc2nc(Nc3ccc(C(=O)N4CCC(N5CCN(C)CC5)CC4)cc3)c3[nH]ncc3c12 [Example 39, (4-((9-methoxy-3H-pyrazolo[3,4-c]quinolin-4-yl)amino)phenyl)(4-(4-methylpiperazin-1-yl)piperidin-1-yl)methanone]
10 to 100	COc1cccc2nc(Nc3ccc4c(c3)COC4)c3[nH]ncc3c12 [Example 18, N-(1,3-dihydroisobenzofuran-5-yl)-9-methoxy-3H-pyrazolo[3,4-c]quinolin-4-amine]
< 10	CS(=O)(=O)c1ccc2nc(Nc3cnn(C4CCOCC4)c3Cl)c3[nH]ncc3c2c1 [Example 265, N-(5-chloro-1-(tetrahydro-2H-pyran-4-yl)-1H-pyrazol-4-yl)-8-(methylsulfonyl)-3H-pyrazolo[3,4-c]quinolin-4-amine]
10 to 100	COCCn1ncc(Nc2nc3ccc(S(C)(=O)=O)cc3c3cn[nH]c23)c1C(F)(F)F [Example 272, N-(1-(2-methoxyethyl)-5-(trifluoromethyl)-1H-pyrazol-4-yl)-8-(methylsulfonyl)-3H-pyrazolo[3,4-c]quinolin-4-amine]
10 to 100	Cc1c(Nc2nc3ccc(S(C)(=O)=O)cc3c3cn[nH]c23)cnn1C1CCOCC1 [Example 281, N-(5-methyl-1-(tetrahydro-2H-pyran-4-yl)-1H-pyrazol-4-yl)-8-(methylsulfonyl)-3H-pyrazolo[3,4-c]quinolin-4-amine]
10 to 100	COc1cccc2nc(Nc3ccc(N4CCOCC4)c(F)c3)c3[nH]ncc3c12 [Example 27, N-(3-fluoro-4-morpholinophenyl)-9-methoxy-3H-pyrazolo[3,4-c]quinolin-4-amine]
100 to 1000	COc1ccc2nc(Nc3cnn(C)n3)c3n[nH]cc3c2c1 [Example 122, 8-methoxy-N-(2-methyl-2H-1,2,3-triazol-4-yl)-2H-pyrazolo[3,4-c]quinolin-4-amine]
